Data: patent publication US20120164575A1, “CYCLIC COMPOUND, MANUFACTURING METHOD THEREFOR, RADIATION-SENSITIVE COMPOSITION, AND METHOD FOR FORMING A RESIST PATTERN” (MITSUBISHI GAS CHEMICAL COMPANY, INC., priority 2009, published 2012)

Assay: Solubility of compound in safety solvent
Assay type: physicochemical
Conditions: for solubility in CHN: cyclohexanone (CHN); for solubility in PGME: propylene glycol monomethyl ether (PGME); for solubility in PGMEA: propylene glycol monomethyl ether acetate (PGMEA)
Protocol: The compounds obtained in Synthesis Examples 1 to 6 and Synthesis 1 to 4 were evaluated for the solubility in propylene glycol monomethyl ether acetate (PGMEA), propylene glycol monomethyl ether (PGME) and cyclohexanone (CHN).
A: 4.0 wt %≦dissolved amount
B: 1.0 wt %≦dissolved amount<4.0 wt %
C: dissolved amount<1.0 wt %

Row | Structure (SMILES) | solubility in CHN | solubility in PGME | solubility in PGMEA
1 | CC(C)c1ccc(C2c3cc(c(O)cc3O)C(c3ccc(C(C)C)cc3)c3cc(c(O)cc3O)C(c3ccc(C(C)C)cc3)c3cc(c(O)cc3O)C(c3ccc(C(C)C)cc3)c3cc2c(O)cc3O)cc1 (stereo not drawn) [CR-1A] | B (1.0 wt %≦dissolved amount<4.0 wt %) | B (1.0 wt %≦dissolved amount<4.0 wt %) | C (dissolved amount<1.0 wt %)
2 | CC(C)Cc1ccc(C2c3cc(c(O)cc3O)C(c3ccc(CC(C)C)cc3)c3cc(c(O)cc3O)C(c3ccc(CC(C)C)cc3)c3cc(c(O)cc3O)C(c3ccc(CC(C)C)cc3)c3cc2c(O)cc3O)cc1 (stereo not drawn) [CR-2A] | B (1.0 wt %≦dissolved amount<4.0 wt %) | C (dissolved amount<1.0 wt %) | C (dissolved amount<1.0 wt %)
3 | Oc1cc(O)c2cc1C(c1ccc(-c3ccccc3)cc1)c1cc(c(O)cc1O)C(c1ccc(-c3ccccc3)cc1)c1cc(c(O)cc1O)C(c1ccc(-c3ccccc3)cc1)c1cc(c(O)cc1O)C2c1ccc(-c2ccccc2)cc1 (stereo not drawn) [CR-3A] | B (1.0 wt %≦dissolved amount<4.0 wt %) | C (dissolved amount<1.0 wt %) | C (dissolved amount<1.0 wt %)
4 | Oc1cc(O)c2cc1C(c1ccc(C3CCCCC3)cc1)c1cc(c(O)cc1O)C(c1ccc(C3CCCCC3)cc1)c1cc(c(O)cc1O)C(c1ccc(C3CCCCC3)cc1)c1cc(c(O)cc1O)C2c1ccc(C2CCCCC2)cc1 (stereo not drawn) [CR-4A] | B (1.0 wt %≦dissolved amount<4.0 wt %) | B (1.0 wt %≦dissolved amount<4.0 wt %) | C (dissolved amount<1.0 wt %)
